The IC50 is the concentration that gives 50% inhibition.

Structures are written as SMILES. Several values for one entry are separate records, joined by “and”; a condition that tells them apart may be missing. Equal entries are not always repeated. Activity calls are given as the source filed them. No cut-off for these calls is given here. Positions of bridges follow the written chain, without caps; N, C: chain ends. Residues, ends and D or L forms follow the SMILES beside them. A value given as a limit tells only on which side of the number the result lay.

For assay [1], the system named is U-87 MG. In words: Induction of morphological changes in human U-87 MG cells assessed as appearance of shrunken cell bodies at 4.4 uM measured after 72 hrs by phase contrast microscopy. As to conditions: U-87MG ATCC. Type of assay: functional, cell-based.
The subject of assay [2] is U-87 MG. In words: Cytotoxicity against human U-87 MG cells assessed as cell viability at 5 uM upto 72 hrs by MTT assay. As to conditions: time hrs <=72, read-out: Activity. It is filed as functional, U-87MG ATCC. For orientation: Tetrazolium dyes change colour on reduction, which living cells bring about.
In assay [3] the test system is U-87 MG. The experiment in a line: Cytotoxicity against human U-87 MG cells by sulforhodamine B assay. It is filed as functional, cell-based, U-87MG ATCC. A general note: The SRB assay estimates cell density from bound dye.
Assay [4] relates to U-87 MG. In words: Cytotoxicity against human U-87 MG cells using best fit nonlinear regression analysis. It is filed as functional, cell-based, U-87MG ATCC.
For assay [5], the system named is U-87 MG. In words: Effect on cell morphology in human U-87 MG cells at 4.4 uM cotreated with 352 uM of TMZ measured after 72 hrs by phase contrast microscopy. It is filed as functional, cell-based. As to conditions: U-87MG ATCC.
Assay [6] has as its system U-87 MG. In words: Cytotoxicity against human U-87 MG cells assessed as TMZ-induced cell death at 4.5 uM cotreated with 352 to 1408 uM of TMZ incubated upto 72 hrs by MTT assay. Type of assay: functional, cell-based. As to conditions: U-87MG ATCC, time hrs <=72.
Assay [7] relates to SH-SY5Y. In words: Cytotoxicity against human SH-SY5Y cells assessed as TMZ-induced cell death at 2.15 uM cotreated with 108.1 uM of TMZ incubated upto 72 hrs by MTT assay. It is filed as functional. As to conditions: time hrs <=72.
Assay [8] concerns U-87 MG. In words: Induction of morphological changes in human U-87 MG cells assessed as cell death at 4.4 uM cotreated with 352 uM of TMZ measured after 72 hrs by phase contrast microscopy. Type of assay: functional, cell-based. As to conditions: U-87MG ATCC.
In assay [9] the test system is U-251. In words: Cytotoxicity against human U-251 cells by sulforhodamine B assay. It is filed as functional, cell-based.
In assay [10] the test system is SH-SY5Y. The experiment in a line: Cytotoxicity against human SH-SY5Y cells assessed as cell viability using raw interpretation method. Type of assay: functional, cell-based.
For assay [11], the system named is SH-SY5Y. In words: Cytotoxicity against human SH-SY5Y cells assessed as cell viability at 5 uM upto 72 hrs by MTT assay. Type of assay: functional. As to conditions: time hrs <=72, read-out: Activity.
Assay [12] concerns SH-SY5Y. In words: Cytotoxicity against human SH-SY5Y cells assessed as TMZ-induced cell death at 2.15 uM cotreated with 54.05 uM of TMZ incubated upto 72 hrs by MTT assay. As to conditions: time hrs <=72. It is filed as functional.
Assay [13] deals with U-87 MG. In words: Cytotoxicity against human U-87 MG cells assessed as TMZ-induced cell death at 4.4 uM cotreated with 352 uM of TMZ measured after 72 hrs by phase contrast microscopy. Type of assay: functional, cell-based. As to conditions: U-87MG ATCC.
The subject of assay [14] is U-87 MG. In words: Induction of morphological changes in human U-87 MG cells assessed as swollen nuclei at 4.4 uM cotreated with 352 uM of TMZ measured after 72 hrs by phase contrast microscopy. It is filed as functional, cell-based. As to conditions: U-87MG ATCC.
Assay [15] has as its system SH-SY5Y. The experiment in a line: Cytotoxicity against human SH-SY5Y cells using best fit nonlinear regression analysis. Type of assay: functional, cell-based.
Assay [16] has as its system SH-SY5Y. In words: Cytotoxicity against human SH-SY5Y cells assessed as TMZ-induced cell death at 0.27 to 2.15 uM cotreated with 216.2 uM of TMZ incubated upto 72 hrs by MTT assay. Type of assay: functional. As to conditions: dose 0.27-2.15 µM, time hrs <=72.
For assay [17], the system named is U-87 MG. The experiment in a line: Induction of morphological changes in human U-87 MG cells assessed as membrane blebbing at 4.4 uM cotreated with 352 uM of TMZ measured after 72 hrs by phase contrast microscopy. Type of assay: functional, cell-based. As to conditions: U-87MG ATCC.
Assay [18] concerns U-87 MG. In words: Induction of morphological changes in human U-87 MG cells assessed as membrane blebbing at 4.4 uM measured after 72 hrs by phase contrast microscopy. Type of assay: functional, cell-based. As to conditions: U-87MG ATCC.
Assay [19] has as its system U-87 MG. In words: Cytotoxicity against human U-87 MG cells assessed as cell viability using raw interpretation method. Type of assay: functional, cell-based, U-87MG ATCC.
Assay [20] deals with U-87 MG. The experiment in a line: Induction of morphological changes in human U-87 MG cells assessed as appearance of shrunken cell bodies at 1408 uM measured after 72 hrs by phase contrast microscopy. It is filed as functional, U-87MG ATCC.
Assay [21] deals with SH-SY5Y. In words: Cytotoxicity against human SH-SY5Y cells assessed as cell viability at 500 uM incubated upto 72 hrs by MTT assay. As to conditions: time hrs <=72, read-out: Activity. It is filed as functional.
The subject of assay [22] is SH-SY5Y. In words: Cytotoxicity against human SH-SY5Y cells assessed as cell viability at 2000 uM incubated upto 72 hrs by MTT assay. It is filed as functional. As to conditions: time hrs <=72, read-out: Activity.
Assay [23] deals with U-87 MG. In words: Cytotoxicity against human U-87 MG cells assessed as cell death at 352 uM incubated upto 72 hrs by MTT assay. It is filed as functional, U-87MG ATCC. As to conditions: time hrs <=72.
Assay [24] deals with SH-SY5Y. The experiment in a line: Cytotoxicity against human SH-SY5Y cells assessed as cell viability at 100 uM incubated upto 72 hrs by MTT assay. Type of assay: functional. As to conditions: time hrs <=72, read-out: Activity.
Assay [25] has as its system U-87 MG. In words: Cytotoxicity against human U-87 MG cells assessed as cell viability at 10000 uM incubated upto 72 hrs by MTT assay. It is filed as functional, U-87MG ATCC. As to conditions: time hrs <=72, read-out: Activity.
Assay [26] has as its system U-87 MG. The experiment in a line: Cytotoxicity against human U-87 MG cells assessed as cell viability at 100 uM incubated upto 72 hrs by MTT assay. It is filed as functional, U-87MG ATCC. As to conditions: time hrs <=72, read-out: Activity.
The subject of assay [27] is U-87 MG. The experiment in a line: Cytotoxicity against human U-87 MG cells assessed as cell viability at 2000 uM incubated upto 72 hrs by MTT assay. As to conditions: time hrs <=72, read-out: Activity. It is filed as functional, U-87MG ATCC.
Assay [28] has as its system U-87 MG. In words: Induction of morphological changes in human U-87 MG cells assessed as membrane blebbing at 1408 uM measured after 72 hrs by phase contrast microscopy. Type of assay: functional, U-87MG ATCC.
The test system of assay [29] is U-87 MG. The experiment in a line: Induction of morphological changes in human U-87 MG cells assessed as appearance of undergoing apoptosis at 1408 uM measured after 72 hrs by phase contrast microscopy. It is filed as functional, U-87MG ATCC.

As to `CC[C@H](C)[C@@H]1NC(=O)[C@H](C)NC(=O)[C@H](CO)NC(=O)[C@H](CO)NC(=O)[C@H]([C@@H](C)CC)NC(=O)[C@@H]2CSSC[C@@H]3NC(=O)[C@H](C(C)C)NC(=O)[C@H](CCCCN)NC(=O)[C@H](CO)NC(=O)[C@H](CCCCN)NC(=O)[C@@H]4CSSC[C@H](NC(=O)[C@H](CO)NC(=O)[C@H](CCC(=O)O)NC(=O)CNC(=O)[C@H](CSSC[C@H](NC(=O)CNC1=O)C(=O)N[C@@H](CO)C(=O)N4)NC(=O)[C@@H]1CCCN1C(=O)[C@H]([C@@H](C)CC)NC(=O)CNC(=O)[C@H](CC(N)=O)NC(=O)[C@H](CCCNC(=N)N)NC(=O)[C@H](Cc1ccc(O)cc1)NC3=O)C(=O)N[C@@H](C(C)C)C(=O)N[C@@H](Cc1c[nH]c3ccccc13)C(=O)N[C@@H]([C@@H](C)CC)C(=O)N1CCC[C@H]1C(=O)N2` (cyclo(AIGCSCKSKVCYRNGIPCGESCVWIPCISS); disulfide 4-18, 6-22, 11-27), the outcome in assay [1], in [5], in assay [6], in [8], in [14] and in assay [17] was Active. In addition, the outcome in [18] was Active. For the same molecule, the viability at 5 µM in assay [2] came to 54.7%; in assay [11] it was 11.5%. Also, the IC50 in assay [3] was 0.45 µM; in assay [4], 4.5 µM; in [9], 17.1 µg/mL and 790 nM; in assay [10], 3.07 µM; in assay [15], 2.15 µM; in assay [19], 5.66 µM. Also, the Activity is recorded as 30% in assay [7], under 20% in assay [12] and 40% in [16]. Besides, the outcome in assay [13] was inactive.
In the case of `CC[C@H](C)[C@@H]1NC(=O)[C@H](C)NC(=O)[C@H](C)NC(=O)[C@H](CO)NC(=O)[C@H]([C@@H](C)CC)NC(=O)[C@@H]2CSSC[C@@H]3NC(=O)[C@H](C(C)C)NC(=O)[C@H](CCCCN)NC(=O)[C@H](CO)NC(=O)[C@H](CCCCN)NC(=O)[C@@H]4CSSC[C@H](NC(=O)[C@H](CO)NC(=O)[C@H](CCC(=O)O)NC(=O)CNC(=O)[C@H](CSSC[C@H](NC(=O)CNC1=O)C(=O)N[C@@H](CO)C(=O)N4)NC(=O)[C@@H]1CCCN1C(=O)[C@H]([C@@H](C)CC)NC(=O)CNC(=O)[C@H](CC(N)=O)NC(=O)[C@H](CCCNC(=N)N)NC(=O)[C@H](Cc1ccc(O)cc1)NC3=O)C(=O)N[C@@H](C(C)C)C(=O)N[C@@H](Cc1c[nH]c3ccccc13)C(=O)N[C@@H]([C@@H](C)CC)C(=O)N1CCC[C@H]1C(=O)N2` [CYCLOVIOLACIN O13] (cyclo(AAIGCSCKSKVCYRNGIPCGESCVWIPCIS); disulfide 5-19, 7-23, 12-28), the figures for the viability at 5 µM in assay [2] and in assay [11] were 29.7% and 12.5%, respectively. Further, the half-maximal inhibitory concentration (IC50) in assay [4] is 2.57 µM; in [10] it was 3.07 µM; in [15], 2.15 µM; in assay [19], 3.36 µM.
As for `Cn1nnc2c(C(N)=O)ncn2c1=O` [TEMOZOLOMIDE], the Activity in assay [20] is listed as 40%; in assay [23] it was 10%; in assay [28], 40%; in assay [29] it was 40%. In addition, the viability at 500 µM in assay [21] came to 41.5%. Moreover, the viability at 2000 µM is 15.5% in assay [22] and 57.3% in assay [27]. For the same molecule, the IC50 in assay [4] turned out to be 2900 µM; in assay [10], 513 µM; in assay [15], 393 µM; in [19], 3190 µM. Besides, the viability at 100 µM in assay [24] came out at 96.6%; in assay [26], 85.2%. Moreover, the viability at 10000 µM in assay [25] is 32.4%.

The values are drawn from ChEMBL document CHEMBL5046264, “Cyclotides Chemosensitize Glioblastoma Cells to Temozolomide” (J Nat Prod, 2022).
